Test results: the NIST ThermoML archive (doi:10.1016/j.jct.2005.12.005)
± gives the expanded uncertainty stated by the source.

What was measured:
[1] = xn = mol fraction of the nth substance listed; details: 101 kPa, Liquid; for speed of sound: Sing-around technique in a fixed-path interferometer
[2] = refractive index (Na D-line) (dimensionless); xn = mol fraction of the nth substance listed; details: 101 kPa, Liquid

COc1ccccc1 [anisole] + CC1CCCCC1
speed of sound ([1]; 298.15 K, x2 = 0): 1410 ± 6 m/s | speed of sound ([1]; 298.15 K, x2 = 0.1025): 1391 ± 6 m/s | speed of sound ([1]; 298.15 K, x2 = 0.2009): 1372 ± 6 m/s | speed of sound ([1]; 298.15 K, x2 = 0.3006): 1352 ± 6 m/s | speed of sound ([1]; 298.15 K, x2 = 0.406): 1333 ± 5 m/s | speed of sound ([1]; 298.15 K, x2 = 0.5043): 1314 ± 5 m/s | speed of sound ([1]; 298.15 K, x2 = 0.6058): 1294 ± 5 m/s | speed of sound ([1]; 298.15 K, x2 = 0.7026): 1275 ± 5 m/s | speed of sound ([1]; 298.15 K, x2 = 0.8023): 1256 ± 5 m/s | speed of sound ([1]; 298.15 K, x2 = 0.9053): 1236 ± 5 m/s | mass density ([1]; 298.15 K, x2 = 0): 989.2 ± 0.4 kg/m3 | viscosity ([1]; 298.15 K, x2 = 0): 1.008 ± 0.013 mPa·s | mass density ([1]; 298.15 K, x2 = 0.1025): 962.1 ± 0.5 kg/m3 | viscosity ([1]; 298.15 K, x2 = 0.1025): 0.924 ± 0.012 mPa·s | mass density ([1]; 298.15 K, x2 = 0.2009): 936.5 ± 0.5 kg/m3 | viscosity ([1]; 298.15 K, x2 = 0.2009): 0.854 ± 0.012 mPa·s | mass density ([1]; 298.15 K, x2 = 0.3006): 911.8 ± 0.6 kg/m3 | viscosity ([1]; 298.15 K, x2 = 0.3006): 0.793 ± 0.011 mPa·s | mass density ([1]; 298.15 K, x2 = 0.406): 886.7 ± 0.6 kg/m3 | viscosity ([1]; 298.15 K, x2 = 0.406): 0.75 ± 0.01 mPa·s | mass density ([1]; 298.15 K, x2 = 0.5043): 864.4 ± 0.7 kg/m3 | viscosity ([1]; 298.15 K, x2 = 0.5043): 0.717 ± 0.01 mPa·s | mass density ([1]; 298.15 K, x2 = 0.6058): 842.2 ± 0.7 kg/m3 | viscosity ([1]; 298.15 K, x2 = 0.6058): 0.689 ± 0.01 mPa·s | mass density ([1]; 298.15 K, x2 = 0.7026): 821.9 ± 0.7 kg/m3 | viscosity ([1]; 298.15 K, x2 = 0.7026): 0.675 ± 0.009 mPa·s | mass density ([1]; 298.15 K, x2 = 0.8023): 801.8 ± 0.8 kg/m3 | viscosity ([1]; 298.15 K, x2 = 0.8023): 0.667 ± 0.009 mPa·s | mass density ([1]; 298.15 K, x2 = 0.9053): 782.1 ± 0.8 kg/m3 | viscosity ([1]; 298.15 K, x2 = 0.9053): 0.666 ± 0.009 mPa·s | mass density ([1]; 303.15 K, x2 = 0): 984.5 ± 0.4 kg/m3 | viscosity ([1]; 303.15 K, x2 = 0): 0.929 ± 0.012 mPa·s | mass density ([1]; 303.15 K, x2 = 0.1025): 957.4 ± 0.5 kg/m3 | viscosity ([1]; 303.15 K, x2 = 0.1025): 0.905 ± 0.06 mPa·s | mass density ([1]; 303.15 K, x2 = 0.2009): 931.8 ± 0.5 kg/m3 | viscosity ([1]; 303.15 K, x2 = 0.2009): 0.792 ± 0.011 mPa·s | mass density ([1]; 303.15 K, x2 = 0.3006): 907.2 ± 0.6 kg/m3 | viscosity ([1]; 303.15 K, x2 = 0.3006): 0.734 ± 0.01 mPa·s | mass density ([1]; 303.15 K, x2 = 0.406): 882.2 ± 0.6 kg/m3 | viscosity ([1]; 303.15 K, x2 = 0.406): 0.694 ± 0.01 mPa·s | mass density ([1]; 303.15 K, x2 = 0.5043): 860.1 ± 0.7 kg/m3 | viscosity ([1]; 303.15 K, x2 = 0.5043): 0.664 ± 0.009 mPa·s | mass density ([1]; 303.15 K, x2 = 0.6058): 837.8 ± 0.7 kg/m3 | viscosity ([1]; 303.15 K, x2 = 0.6058): 0.645 ± 0.009 mPa·s | mass density ([1]; 303.15 K, x2 = 0.7026): 817.3 ± 0.8 kg/m3 | viscosity ([1]; 303.15 K, x2 = 0.7026): 0.634 ± 0.009 mPa·s | mass density ([1]; 303.15 K, x2 = 0.8023): 797.4 ± 0.8 kg/m3 | viscosity ([1]; 303.15 K, x2 = 0.8023): 0.621 ± 0.009 mPa·s | mass density ([1]; 303.15 K, x2 = 0.9053): 777.8 ± 0.8 kg/m3 | viscosity ([1]; 303.15 K, x2 = 0.9053): 0.622 ± 0.009 mPa·s | mass density ([1]; 308.15 K, x2 = 0): 979.8 ± 0.4 kg/m3 | viscosity ([1]; 308.15 K, x2 = 0): 0.861 ± 0.012 mPa·s | mass density ([1]; 308.15 K, x2 = 0.1025): 952.7 ± 0.5 kg/m3 | viscosity ([1]; 308.15 K, x2 = 0.1025): 0.808 ± 0.011 mPa·s | mass density ([1]; 308.15 K, x2 = 0.2009): 927.2 ± 0.5 kg/m3 | viscosity ([1]; 308.15 K, x2 = 0.2009): 0.737 ± 0.01 mPa·s | mass density ([1]; 308.15 K, x2 = 0.3006): 902.6 ± 0.6 kg/m3 | viscosity ([1]; 308.15 K, x2 = 0.3006): 0.693 ± 0.01 mPa·s | mass density ([1]; 308.15 K, x2 = 0.406): 877.6 ± 0.6 kg/m3 | viscosity ([1]; 308.15 K, x2 = 0.406): 0.654 ± 0.009 mPa·s | mass density ([1]; 308.15 K, x2 = 0.5043): 855.4 ± 0.7 kg/m3 | viscosity ([1]; 308.15 K, x2 = 0.5043): 0.627 ± 0.009 mPa·s | mass density ([1]; 308.15 K, x2 = 0.6058): 833.3 ± 0.7 kg/m3 | viscosity ([1]; 308.15 K, x2 = 0.6058): 0.605 ± 0.009 mPa·s | mass density ([1]; 308.15 K, x2 = 0.7026): 813 ± 0.8 kg/m3 | viscosity ([1]; 308.15 K, x2 = 0.7026): 0.593 ± 0.009 mPa·s | mass density ([1]; 308.15 K, x2 = 0.8023): 792.9 ± 0.8 kg/m3 | viscosity ([1]; 308.15 K, x2 = 0.8023): 0.584 ± 0.008 mPa·s | mass density ([1]; 308.15 K, x2 = 0.9053): 773.4 ± 0.8 kg/m3 | viscosity ([1]; 308.15 K, x2 = 0.9053): 0.583 ± 0.008 mPa·s | refractive index ([2]; 298.15 K, x2 = 0): 1.5136 ± 0.0025 | refractive index ([2]; 298.15 K, x2 = 0.1025): 1.5023 ± 0.0025 | refractive index ([2]; 298.15 K, x2 = 0.2009): 1.4917 ± 0.0025 | refractive index ([2]; 298.15 K, x2 = 0.3006): 1.4813 ± 0.0025 | refractive index ([2]; 298.15 K, x2 = 0.406): 1.4706 ± 0.0025 | refractive index ([2]; 298.15 K, x2 = 0.5043): 1.4609 ± 0.0025 | refractive index ([2]; 298.15 K, x2 = 0.6058): 1.4516 ± 0.0025 | refractive index ([2]; 298.15 K, x2 = 0.7026): 1.4431 ± 0.0025 | refractive index ([2]; 298.15 K, x2 = 0.8023): 1.4351 ± 0.0025 | refractive index ([2]; 298.15 K, x2 = 0.9053): 1.4278 ± 0.0025 | refractive index ([2]; 303.15 K, x2 = 0): 1.5112 ± 0.0025 | refractive index ([2]; 303.15 K, x2 = 0.1025): 1.5036 ± 0.0025 | refractive index ([2]; 303.15 K, x2 = 0.2009): 1.489 ± 0.0025 | refractive index ([2]; 303.15 K, x2 = 0.3006): 1.4801 ± 0.0025 | refractive index ([2]; 303.15 K, x2 = 0.406): 1.4701 ± 0.0025 | refractive index ([2]; 303.15 K, x2 = 0.5043): 1.4586 ± 0.0025 | refractive index ([2]; 303.15 K, x2 = 0.6058): 1.4497 ± 0.0025 | refractive index ([2]; 303.15 K, x2 = 0.7026): 1.4408 ± 0.0025 | refractive index ([2]; 303.15 K, x2 = 0.8023): 1.4323 ± 0.0025 | refractive index ([2]; 303.15 K, x2 = 0.9053): 1.4242 ± 0.0025 | refractive index ([2]; 308.15 K, x2 = 0): 1.5088 ± 0.0025 | refractive index ([2]; 308.15 K, x2 = 0.1025): 1.4978 ± 0.0025 | refractive index ([2]; 308.15 K, x2 = 0.2009): 1.487 ± 0.0025 | refractive index ([2]; 308.15 K, x2 = 0.3006): 1.4766 ± 0.0025 | refractive index ([2]; 308.15 K, x2 = 0.406): 1.4659 ± 0.0025 | refractive index ([2]; 308.15 K, x2 = 0.5043): 1.4563 ± 0.0025 | refractive index ([2]; 308.15 K, x2 = 0.6058): 1.4467 ± 0.0025 | refractive index ([2]; 308.15 K, x2 = 0.7026): 1.4382 ± 0.0025 | refractive index ([2]; 308.15 K, x2 = 0.8023): 1.4301 ± 0.0025 | refractive index ([2]; 308.15 K, x2 = 0.9053): 1.4226 ± 0.0025

Cc1ccccc1 [toluene] + CC1CCCCC1
speed of sound ([1]; 298.15 K, x2 = 0): 1314 ± 5 m/s | mass density ([1]; 298.15 K, x2 = 0): 862.3 ± 0.5 kg/m3 | viscosity ([1]; 298.15 K, x2 = 0): 0.559 ± 0.008 mPa·s | mass density ([1]; 303.15 K, x2 = 0): 857.6 ± 0.6 kg/m3 | viscosity ([1]; 303.15 K, x2 = 0): 0.526 ± 0.007 mPa·s | mass density ([1]; 308.15 K, x2 = 0): 852.9 ± 0.6 kg/m3 | viscosity ([1]; 308.15 K, x2 = 0): 0.497 ± 0.007 mPa·s | refractive index ([2]; 298.15 K, x2 = 0): 1.4931 ± 0.0009 | refractive index ([2]; 303.15 K, x2 = 0): 1.4902 ± 0.0009 | refractive index ([2]; 308.15 K, x2 = 0): 1.4874 ± 0.0009

c1ccccc1 [benzene] + CC1CCCCC1
speed of sound ([1]; 298.15 K, x2 = 0): 1302 ± 5 m/s | mass density ([1]; 298.15 K, x2 = 0): 873.4 ± 0.5 kg/m3 | viscosity ([1]; 298.15 K, x2 = 0): 0.602 ± 0.008 mPa·s | mass density ([1]; 303.15 K, x2 = 0): 868.1 ± 0.5 kg/m3 | viscosity ([1]; 303.15 K, x2 = 0): 0.56 ± 0.008 mPa·s | mass density ([1]; 308.15 K, x2 = 0): 862.7 ± 0.5 kg/m3 | viscosity ([1]; 308.15 K, x2 = 0): 0.523 ± 0.007 mPa·s | refractive index ([2]; 298.15 K, x2 = 0): 1.4971 ± 0.0009 | refractive index ([2]; 303.15 K, x2 = 0): 1.4936 ± 0.0009 | refractive index ([2]; 308.15 K, x2 = 0): 1.4903 ± 0.0009
